Reference: US7732185B2, “Plasmid having response to dioxins, transgenic cell for measuring dioxins, dioxins sensing method and biosensor using the same” (priority 2004, dated 2010)

How the values were obtained:
Format in all cases: cell-based, mouse
[1] = system: aryl hydrocarbon receptor (AhR); assay: DRESSA method: SEAP protein activity in conditioned medium of HeDS cells; settings: for induction of SEAP protein activity compared with DMSO control: HeDS cells stimulated by 1 μM
Experimental: Each cell clump is treated with trypsin to be removed, transferred to a 96-well culture plate every two wells, and cultured for one week continuously (S5). After the cells become confluent, the culture medium of each well is exchanged with 100 μl of α-MEM containing 1% FBS, and the cells are cultured for 24 hours in the presence or absence of 10 pM TCDD. Then, using 5 μl of the conditioned medium, a predetermined SEAP assay is performed to establish HeDS cells that react with a low concentration of dioxin with the highest sensitivity, and the cells are used for a dioxins sensing bioassay (S6). In this specification, the bioassay method is referred to as DRE-based Sensing of dioxin via Secreted Alkaline phosphatase (hereinafter, abbreviated as the DRESSA method).
Further, AhR14 forms a complex with Arnt15 that is a coactivator, enters the nuclear, and is combined with MMTV-DRE11 to activate. As a result, transcription of downstream SEAP gene 12 is promoted, messenger RNA 16 is produced and translated to protein 18 with ribosome 17, and the protein is promptly secreted outside the cell as a SEAP protein. Accordingly, by measuring the activity of the SEAP protein in the conditioned medium, it is possible to determine a level of dioxins to which the cells are exposed. First, HeDS cells with a concentration of 2×10^4/well are seeded in each well of a 96-well culture plate. As a culture medium, 100 μl of A-MEM containing […] is filled into each well (S1). After the cells are cultured for 24 hours to be fixed to the bottom of each well, the culture medium is exchanged, and 1 μl of a liquid sample containing TCDD is added (S2). After culturing for 24 hours, the conditioned medium is sampled every 5 μl (S3), and the SEAP protein activity is measured by procedures as described below.
(§1) The SEAP protein activity in the conditioned medium is determined as described below. To 5 μl of the conditioned medium is added 15 μl of buffer, the resultant is incubated at 65° C. for 30 minutes, and endogenous alkaline phosphatase activity is inactivated. Added further is 20 μl of buffer containing L-homoarginine that is an inhibitor of endogenous alkaline phosphatase, and the resultant is kept standing for 5 minutes. Then, 15 μl of substrate CSPD is added thereto, the resultant is kept standing at a dark place for 30 minutes, and the degree of chemical emission is measured by a luminometer.

[2] = system: aryl hydrocarbon receptor (AhR); assay: fast DRESSA method: floating HeDS cells, SEAP protein activity in conditioned medium
Experimental: as §1
In order to perform the above-mentioned DRESSA method easily and economically in a short time, it is possible to simplify the sensing procedures as described above, as shown in FIG. 1a. In other words, 50 μl of the culture medium containing 1 μl of sample is filled into each well of a 96-well culture plate, and immediately, HeDS cells floated in the culture medium are added (total 100 μl) (S1).
The conditioned medium is sampled three to four hours later (S2), and the SEAP protein activity is measured (S3). By using this scheme, it is possible to sense 1 pM of TCDD regarded as the sensing limit of the current method within four to five hours. Hereinafter, this method is referred to as a fast DRESSA method. The fast DRESSA method has no difference in sensing sensitivity from the DRESSA method.

[3] = system: aryl hydrocarbon receptor (AhR); assay: SEAP reporter plasmid comparison of sensor sequences (DRE, MMTV-DRE, MMTV) in Hepa-1c1c7 cells stimulated by TCDD
Experimental: SEAP reporter plasmids having MMTV-DRE or only DRE as a sensor sequence were prepared, and each of the plasmids was gene-introduced to a Hepa-1c1c7 cell. In addition, details of gene introduction will be described later. The cells were stimulated by TCDD, and increases in SEAP activity were compared. In the cell to which was introduced the SEAP reporter plasmid only having DRE as a sensor sequence, the SEAP activity increased by 4.5 times by the stimulus of TCDD.
In contrast thereto, in the cell (Hepa 1c1c7-DRE-SEAP cell, hereinafter, referred to as an HeDS cell) to which was introduced the SEAP reporter plasmid having MMTV-DRE as a sensor sequence, the SEAP activity increased by 43.2 times by the stimulus of TCDD. […] This means that the sequence of MMTV strongly amplifies the response of DRE to dioxin. The high reactivity of MMTV-DRE enables a fast assay with low cost.
as §1

Question: Cc1ccc2cc3c(ccc4ccccc43)c3c2c1CC3 [3-MC, 3-methylcholanthrene] was tested. Which “induction of SEAP protein activity compared with DMSO control” value (“induction … compared with DMSO control” below) [1] did it give?
Answer: remarkable induction

Question: Which “induction … compared with DMSO control” value [1] does the source give for c1ccc2c(c1)cc1ccc3cccc4ccc2c1c34 [B[a]P, benzo[a]pyrene] here?
Answer: remarkable induction

Question: For Clc1cc2c(cc1Cl)Oc1cc(Cl)c(Cl)cc1O2 [TCDD, 2,3,7,8-tetrachlorodibenzo-p-dioxin], which “time after addition at which significant increases in SEAP protein activity are observed” value ([1]; 6 pM TCDD, DMSO control, traced up to 10 hours) is on record?
Answer: four

Question: What about the “sensing with a reduced number of cells” value ([1]; 1 nM TCDD, 50 cells in one well of a 96-well plate) of the same compound?
Answer: can be sensed sufficiently

Question: And the “concentration of TCDD possible to sense” value ([1]; 5,000 HeDS cells)?
Answer: 0.5 pM

Question: What about the “concentration at which significant increases in SEAP protein activity were already observed” value ([1]; HeDS cells exposed to 0 to 1 pM TCDD) of the same compound?
Answer: 0.25 pM

Question: And the “concentration up to which SEAP protein activity increases dependent on the concentration” value ([1]; HeDS cells, culture medium)?
Answer: up to 100 pM

Question: What about the “time for which increases in SEAP protein activity continued before reaching equilibrium” value ([1]; TCDD stimulation, traced up to 72 hours) of the same compound?
Answer: 48 h

Question: And the “time after addition at which significant increases in SEAP protein activity were already observed” value ([2]; 6 pM TCDD)?
Answer: three

Question: And the “time after addition at which significant increases in SEAP protein activity were already observed” value ([2]; 1 nM TCDD)?
Answer: three

Question: And the “concentration of TCDD possible to sense” value ([2]; within four to five hours)?
Answer: 1 pM

Question: What about the “increase in SEAP activity by the stimulus of TCDD” value (“increase in SEAP activity” below) ([3]; HeDS cell: SEAP reporter plasmid having MMTV-DRE as sensor sequence) of the same compound?
Answer: 43.2 times

Question: And the “increase in SEAP activity” value ([3]; Hepa-1c1c7 cell with SEAP reporter plasmid only having DRE as sensor sequence)?
Answer: 4.5 times

Question: What about the “increase in SEAP activity” value ([3]; cell with SEAP reporter plasmid only having MMTV as sensor sequence) of the same compound?
Answer: did not increase

Question: For O=c1cc(-c2ccccc2)oc2ccc3ccccc3c12 [βNF, β-naphthoflavone], which “induction … compared with DMSO control” value [1] is on record?
Answer: remarkable induction
